Reference: PubChem BioAssay (NCI)
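In this assay, cells in 96-well plates receive the compound at five concentrations for 48 hours. Endpoints are linearly interpolated between the surrounding concentrations. TGI marks complete inhibition of growth.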

Key:
Assay in all cases: growth of human tumour cells (NCI), 48 h
[1] = tested on: MCF7 breast
[2] = tested on: M14 melanoma
[3] = tested on: OVCAR-4 ovarian
[4] = tested on: HOP-92 NSCLC
[5] = tested on: SK-MEL-28 melanoma
[6] = tested on: MALME-3M melanoma
[7] = tested on: A549 NSCLC
[8] = tested on: NCI-H522 lung
[9] = tested on: UACC-62 melanoma
[10] = tested on: NCI-H460 lung
[11] = tested on: 786-0 renal
[12] = tested on: SN12C renal
[13] = tested on: T-47D breast
[14] = tested on: SNB-75 CNS
[15] = tested on: SF-295 CNS
[16] = tested on: UACC-257 melanoma
[17] = tested on: CAKI-1 renal
[18] = tested on: NCI-H23 lung
[19] = tested on: TK-10 renal
[20] = tested on: OVCAR-5 ovarian
[21] = tested on: SNB-19 CNS
[22] = tested on: SF-268 CNS
[23] = tested on: KM12 colon
[24] = tested on: K-562 leukemia
[25] = tested on: SR leukemia
[26] = tested on: ACHN renal
[27] = tested on: SF-539 CNS
[28] = tested on: SK-OV-3 ovarian
[29] = tested on: MDA-N
[30] = tested on: HS 578T breast
[31] = tested on: HL-60(TB) leukemia
[32] = tested on: HCT-116 colon
[33] = tested on: HT29 colon
[34] = tested on: MDA-MB-435
[35] = tested on: OVCAR-8 ovarian
[36] = tested on: SK-MEL-5 melanoma
[37] = tested on: COLO 205 colon
[38] = tested on: SW-620 colon
[39] = tested on: HCT-15 colon
[40] = tested on: PC-3 prostate
[41] = tested on: EKVX NSCLC
[42] = tested on: NCI/ADR-RES ovarian
[43] = tested on: SK-MEL-2 melanoma
[44] = tested on: HCC-2998 colon
[45] = tested on: LOX IMVI melanoma
[46] = tested on: A498 renal
[47] = tested on: RXF 393 renal
[48] = tested on: OVCAR-3 ovarian
[49] = tested on: HOP-62 NSCLC
[50] = tested on: IGROV1 ovarian
[51] = tested on: U251 CNS
[52] = tested on: NCI-H226 lung
[53] = tested on: DU-145 prostate
[54] = tested on: CCRF-CEM leukemia
[55] = tested on: MOLT-4 leukemia
[56] = tested on: UO-31 renal
[57] = tested on: RPMI-8226 leukemia

Q: Which TGI [1] does the source give for `O=P(O)(O)C=C=C1CCCCC1` here?
A: > 100 µM

Q: What about the TGI [2] of the same compound?
A: > 100 µM

Q: What about the TGI [3] of the same compound?
A: > 100 µM

Q: And the TGI [4]?
A: > 100 µM

Q: What about the TGI [5] of the same compound?
A: > 100 µM

Q: And the TGI [6]?
A: > 100 µM

Q: What about the TGI [7] of the same compound?
A: > 100 µM

Q: And the TGI [8]?
A: > 100 µM

Q: What about the TGI [9] of the same compound?
A: > 100 µM

Q: What about the TGI [10] of the same compound?
A: > 100 µM

Q: And the TGI [11]?
A: > 100 µM

Q: And the TGI [12]?
A: > 100 µM

Q: What about the TGI [13] of the same compound?
A: > 100 µM

Q: And the TGI [14]?
A: > 100 µM

Q: What about the TGI [15] of the same compound?
A: > 100 µM

Q: And the TGI [16]?
A: > 100 µM

Q: And the TGI [17]?
A: > 100 µM

Q: What about the TGI [18] of the same compound?
A: > 100 µM

Q: What about the TGI [19] of the same compound?
A: > 100 µM

Q: And the TGI [20]?
A: > 100 µM

Q: What about the TGI [21] of the same compound?
A: > 100 µM

Q: What about the TGI [22] of the same compound?
A: > 100 µM

Q: And the TGI [23]?
A: > 100 µM

Q: What about the TGI [24] of the same compound?
A: > 100 µM

Q: And the TGI [25]?
A: > 100 µM

Q: And the TGI [26]?
A: > 100 µM

Q: What about the TGI [27] of the same compound?
A: > 100 µM

Q: What about the TGI [28] of the same compound?
A: > 100 µM

Q: And the TGI [29]?
A: > 100 µM

Q: What about the TGI [30] of the same compound?
A: > 100 µM

Q: What about the TGI [31] of the same compound?
A: > 100 µM

Q: And the TGI [32]?
A: > 100 µM

Q: What about the TGI [33] of the same compound?
A: > 100 µM

Q: And the TGI [34]?
A: > 100 µM

Q: What about the TGI [35] of the same compound?
A: > 100 µM

Q: And the TGI [36]?
A: > 100 µM

Q: What about the TGI [37] of the same compound?
A: > 100 µM

Q: And the TGI [38]?
A: > 100 µM

Q: What about the TGI [39] of the same compound?
A: > 100 µM

Q: What about the TGI [40] of the same compound?
A: > 100 µM

Q: And the TGI [41]?
A: > 100 µM

Q: What about the TGI [42] of the same compound?
A: > 100 µM

Q: And the TGI [43]?
A: > 100 µM

Q: What about the TGI [44] of the same compound?
A: > 100 µM

Q: What about the TGI [45] of the same compound?
A: > 100 µM

Q: What about the TGI [46] of the same compound?
A: > 100 µM

Q: What about the TGI [47] of the same compound?
A: > 100 µM

Q: What about the TGI [48] of the same compound?
A: > 100 µM

Q: What about the TGI [49] of the same compound?
A: > 100 µM

Q: And the TGI [50]?
A: > 100 µM

Q: What about the TGI [51] of the same compound?
A: > 100 µM

Q: And the TGI [52]?
A: > 100 µM

Q: What about the TGI [53] of the same compound?
A: > 100 µM

Q: With `CCN(CCCl)c1cccc(NC(=O)c2ccc(C(=O)Nc3cccc(CN(C)C)c3)cc2)c1` as the compound, how does the TGI [1] read?
A: 1.09 µM

Q: What about the TGI [54] of the same compound?
A: 1.22 µM

Q: What about the TGI [2] of the same compound?
A: 0.86 µM

Q: What about the TGI [3] of the same compound?
A: 0.611 µM

Q: What about the TGI [4] of the same compound?
A: 1.6 µM

Q: And the TGI [5]?
A: 0.68 µM

Q: And the TGI [6]?
A: 0.166 µM

Q: And the TGI [7]?
A: 12.2 µM

Q: And the TGI [55]?
A: 1.15 µM

Q: And the TGI [8]?
A: 0.0342 µM

Q: What about the TGI [9] of the same compound?
A: 0.309 µM

Q: What about the TGI [10] of the same compound?
A: 1.36 µM

Q: And the TGI [12]?
A: 2.44 µM

Q: And the TGI [13]?
A: 0.662 µM

Q: What about the TGI [14] of the same compound?
A: 0.759 µM

Q: What about the TGI [15] of the same compound?
A: 13.2 µM

Q: And the TGI [16]?
A: 0.304 µM

Q: What about the TGI [17] of the same compound?
A: 1.58 µM

Q: What about the TGI [18] of the same compound?
A: 1.15 µM

Q: What about the TGI [19] of the same compound?
A: 0.779 µM

Q: And the TGI [20]?
A: 32 µM

Q: What about the TGI [21] of the same compound?
A: 0.887 µM

Q: And the TGI [22]?
A: 4.87 µM

Q: And the TGI [24]?
A: 10.9 µM

Q: What about the TGI [25] of the same compound?
A: 27.3 µM

Q: And the TGI [26]?
A: 0.624 µM

Q: What about the TGI [27] of the same compound?
A: 0.611 µM

Q: And the TGI [28]?
A: 4.13 µM

Q: What about the TGI [29] of the same compound?
A: 0.286 µM

Q: And the TGI [30]?
A: 0.399 µM

Q: And the TGI [31]?
A: 12.7 µM

Q: What about the TGI [32] of the same compound?
A: 12.4 µM

Q: What about the TGI [56] of the same compound?
A: 1.81 µM

Q: And the TGI [34]?
A: 0.114 µM

Q: And the TGI [35]?
A: 1.35 µM

Q: And the TGI [37]?
A: 0.24 µM

Q: What about the TGI [38] of the same compound?
A: 11.9 µM

Q: And the TGI [39]?
A: 6.58 µM

Q: And the TGI [40]?
A: 1.02 µM

Q: And the TGI [42]?
A: > 100 µM

Q: What about the TGI [43] of the same compound?
A: 0.0856 µM

Q: And the TGI [44]?
A: 0.368 µM

Q: What about the TGI [45] of the same compound?
A: 0.177 µM

Q: What about the TGI [46] of the same compound?
A: 0.502 µM

Q: What about the TGI [47] of the same compound?
A: 0.0298 µM

Q: And the TGI [49]?
A: 6.14 µM

Q: What about the TGI [50] of the same compound?
A: 1.13 µM

Q: And the TGI [51]?
A: 4.08 µM

Q: What about the TGI [57] of the same compound?
A: 27 µM

Q: And the TGI [53]?
A: 12.2 µM
